From US20240408119A1, “DELIVERY OF THERAPEUTIC ALKALOID COMPOUNDS” (priority 2022, published 2024)
Where two headings read alike, the source gives them in different places.

Key:
[1] = type: in vitro ADME, mouse; conditions: 5 μM, 37° C.; for Mouse Plasma Metabolite (%): metabolite (mesembrine) accumulated; for Mouse Plasma Prodrug (%): prodrug remaining
Protocol: (§1) Each test was carried out in duplicate for each time point; 0 min, 15 min, 30 min, 60 min, 120, 240 min. […]

[2] = type: in vitro ADME, human; conditions: 5 μM, 37° C.; for Human Plasma Metabolite (%): metabolite (mesembrine) accumulated; for Human Plasma Prodrug (%): prodrug remaining
Protocol: as §1

[3] = Hydrolysis Assay - Condition 1 (SGF); type: physicochemical; conditions: SGF with pepsin pH 1.5, 37° C., 0.5 mM
Protocol: 50 μL of compound (10 mM) in DMSO was diluted into 950 μL of Simulated Gastric Fluid (SGF) with pepsin (pH 1.5) to a final concentration of 0.5 mM. The hydrolysis kinetics were conducted at 37° C. and measured by LCMS at a certain time interval.
(§2) The corresponding LCMS chromatogram were recorded and the conversions were calculated by integration of each peak.
(§3) • 1) LCMS spectra were obtained using Agilent 1200G1956A or SHIMADZU LCMS-2020. Standard LCMS conditions were as follows (running time 1.55 minutes): • Acidic condition: Mobile Phase A: 0.0375% TFA in water (v/v). Mobile Phase B: 0.01875% TFA in acetonitrile (v/v); Column: Kinetex EVO C18 30*2.1 mm, 5 μm. • Basic condition: Mobile Phase A: 0.025% NH3·H2O in water (v/v). Mobile Phase B: Acetonitrile; Column: Kinetex EVO C18 2.1×30 mm, 5 μm. • 2) Conversion (%)=peak area 1/(peak area 1+peak area 2)*100%, peak area 1 is the integration of hydrolyzed product, peak area 2 is the integration of starting material.

[4] = Hydrolysis Assay - Condition 2 (DI Water); type: physicochemical; conditions: 25° C., 0.5 mM
Protocol: 50 μL of compound (10 mM) in DMSO was diluted into 950 μL of DI water to a final concentration of 0.5 mM. The hydrolysis kinetics were conducted at 25° C. and measured by LCMS at a certain time interval.
as §2, §3

[5] = Plasma Stability Assay (Example A3), human plasma; type: in vitro ADME; conditions: prodrug remaining, 10 μM, 37° C.
From the text: (§4) The data is represented in the table below.

[6] = Plasma Stability Assay (Example A3), rat plasma; type: in vitro ADME; conditions: prodrug remaining, 10 μM, 37° C.
From the text: as §4

SMILES | Mouse Plasma Metabolite (%) ([1]; 0 min) | Mouse Plasma Metabolite (%) ([1]; 15 min) | Mouse Plasma Metabolite (%) ([1]; 30 min) | Mouse Plasma Metabolite (%) ([1]; 60 min) | Mouse Plasma Metabolite (%) ([1]; 120 min) | Mouse Plasma Metabolite (%) ([1]; 240 min) | Mouse Plasma Prodrug (%) ([1]; 0 min) | Mouse Plasma Prodrug (%) ([1]; 15 min) | Mouse Plasma Prodrug (%) ([1]; 30 min) | Mouse Plasma Prodrug (%) ([1]; 60 min) | Mouse Plasma Prodrug (%) ([1]; 120 min) | Mouse Plasma Prodrug (%) ([1]; 240 min) | Human Plasma Metabolite (%) ([2]; 0 min) | Human Plasma Metabolite (%) ([2]; 15 min) | Human Plasma Prodrug (%) ([2]; 0 min) | Human Plasma Prodrug (%) ([2]; 15 min) | Human Plasma Prodrug (%) ([2]; 30 min) | Human Plasma Prodrug (%) ([2]; 60 min) | Human Plasma Prodrug (%) ([2]; 120 min) | Human Plasma Prodrug (%) ([2]; 240 min) | further results
COc1ccc([C@@]23CCC(OP(=O)(Oc4ccccc4)Oc4ccccc4)=C[C@@H]2N(C)CC3)cc1OC [Compound 320, [(3aS,7aS)-3a-(3,4-dimethoxyphenyl)-1-methyl-3,4,5,7a-tetrahydro-2H-indol-6-yl]diphenyl phosphate] | 11.8 | 15.9 | 16.9 | 18.6 | 19.1 | 18.9 | 100 | 58.5 | 46.5 | 30.7 | 19.4 | 11.7 | 7.6 | 8.0 | 100 | 95.7 | 98.5 | 95.7 | 98.2 | 95.3 | Human Plasma Metabolite (%) ([2]; 30 min): 8.5%; Human Plasma Metabolite (%) ([2]; 60 min): 8.6%; Human Plasma Metabolite (%) ([2]; 120 min): 9.4%; Human Plasma Metabolite (%) ([2]; 240 min): 10.4%
COc1ccc([C@@]23CCC(OC(=O)N(C)C)=C[C@@H]2N(C)CC3)cc1OC [Compound 324, [(3aS,7aS)-3a-(3,4-dimethoxyphenyl)-1-methyl-3,4,5,7a-tetrahydro-2H-indol-6-yl] N,N-dimethylcarbamate] | – | – | – | – | – | – | 100.0 | 97.4 | 94.4 | 94.9 | 92.6 | 88.9 | – | – | 100.0 | 98.2 | 98.7 | >99 | >99 | 96.5 | Condition 1 Conversion (%) ([3]; 1 min): 0%; Condition 1 Conversion (%) ([3]; 5 min): 0%; Condition 1 Conversion (%) ([3]; 30 min): 0%; Condition 1 Conversion (%) ([3]; 1 h): 0%; Condition 1 Conversion (%) ([3]; 4 h): 0%; Condition 1 Conversion (%) ([3]; 24 h): 0%; Condition 2 Conversion (%) ([4]; 1 min): 0%; Condition 2 Conversion (%) ([4]; 5 min): 0%; Condition 2 Conversion (%) ([4]; 30 min): 0%; Condition 2 Conversion (%) ([4]; 1 h): 0%; Condition 2 Conversion (%) ([4]; 4 h): 0%; Condition 2 Conversion (%) ([4]; 24 h): 0%
CCN(C)C(=O)OC1=C[C@@H]2N(C)CC[C@]2(c2ccc(OC)c(OC)c2)CC1 [Compound 326, [(3aS,7aS)-3a-(3,4-dimethoxyphenyl)-1-methyl-3,4,5,7a-tetrahydro-2H-indol-6-yl] N-ethyl-N-methyl-carbamate] | – | – | – | – | – | – | 100.0 | >99 | 96.6 | >99 | >99 | 98.5 | – | – | 100.0 | 98.2 | 99.9 | 98.4 | >99 | 93.9 | Condition 1 Conversion (%) ([3]; 1 min): 0%; Condition 1 Conversion (%) ([3]; 5 min): 0%; Condition 1 Conversion (%) ([3]; 30 min): 0%; Condition 1 Conversion (%) ([3]; 1 h): 0%; Condition 1 Conversion (%) ([3]; 4 h): 0%; Condition 1 Conversion (%) ([3]; 24 h): 0%; Condition 2 Conversion (%) ([4]; 1 min): 0%; Condition 2 Conversion (%) ([4]; 5 min): 0%; Condition 2 Conversion (%) ([4]; 30 min): 0%; Condition 2 Conversion (%) ([4]; 1 h): 0%; Condition 2 Conversion (%) ([4]; 4 h): 0%; Condition 2 Conversion (%) ([4]; 24 h): 0%
COc1ccc([C@@]23CCC(OP(=O)(O)O)=C[C@@H]2N(C)CC3)cc1OC [Compound 359, [(3aS,7aS)-3a-(3,4-dimethoxyphenyl)-1-methyl-3,4,5,7a-tetrahydro-2H-indol-6-yl] dihydrogen phosphate] | 0.0 | 0.0 | 0.0 | 0.0 | 0.0 | 0.0 | 100 | >99 | 82.7 | 79.0 | 50.7 | 59.1 | 0.0 | 0.0 | 100 | 69.0 | 65.1 | 50.4 | 32.8 | 25.6 | Human Plasma Metabolite (%) ([2]; 30 min): 0.0%; Human Plasma Metabolite (%) ([2]; 60 min): 0.0%; Human Plasma Metabolite (%) ([2]; 120 min): 15.7%; Human Plasma Metabolite (%) ([2]; 240 min): 23.0%
COc1ccc([C@@]23CCC(OP(=O)(O)OCOC(=O)OC(C)C)=C[C@@H]2N(C)CC3)cc1OC [Compound 410, [[(3aS,7aS)-3a-(3,4-dimethoxyphenyl)-1-methyl-3,4,5,7a-tetrahydro-2H-indol-6-yl]oxy-hydroxy-phosphoryl]oxymethyl isopropyl carbonate] | – | – | – | – | – | – | – | – | – | – | – | – | – | – | – | – | – | – | – | – | Human Plasma Prodrug (%) ([5]; 0 min): 100.0%; Human Plasma Prodrug (%) ([5]; 10 min): 96.3%; Human Plasma Prodrug (%) ([5]; 30 min): 98.8%; Human Plasma Prodrug (%) ([5]; 60 min): 92.7%; Human Plasma Prodrug (%) ([5]; 120 min): 88.2%; Human Plasma Prodrug (%) ([5]; 240 min): 75.5%; Rat Plasma Prodrug (%) ([6]; 0 min): 100.0%; Rat Plasma Prodrug (%) ([6]; 10 min): 63.0%; Rat Plasma Prodrug (%) ([6]; 30 min): 25.4%; Rat Plasma Prodrug (%) ([6]; 60 min): 7.1%; Rat Plasma Prodrug (%) ([6]; 120 min): 0.52%; Rat Plasma Prodrug (%) ([6]; 240 min): 0.01%
